Assay results published in publication PMC11594133, “Enzyme (α-Glucosidase, α-Amylase, PTP1B & VEGFR-2) Inhibition and Cytotoxicity of Fluorinated Benzenesulfonic Ester Derivatives of the 5-Substituted 2-Hydroxy-3-nitroacetophenones” (International Journal of Molecular Sciences, 2024).

Tests used:
[1] = molecular target: α-glucosidase from Saccharomyces cerevisiae (Saccharomyces cerevisiae, UniProt P53341); assay: biochemical
Experimental: A mixture of α-glucosidase (17 µL) from Saccharomyces cerevisiae (0.48 u/mL α-glucosidase), phosphate buffer (100 mM, pH 6.8; 50 µL) and test sample in DMSO was incubated at 37 °C for 10 min. After 10 min., a solution of 2 mM p-nitrophenyl-α-D-glucopyranoside (PNP-G, 17 µL) was added to each well to initiate the reaction. The plate was incubated for 30 min at 37 °C. Five absorbance readings were recorded for each triplicate run at a wavelength of 405 nm using Varioskan flash microplate spectrophotometer (Thermo Scientific, Waltham, MA, USA). The average values obtained from the readings were used to determine the IC50 and standard deviation values. The values were calculated by nonlinear regression analysis and expressed as the mean SD of three distinct experiments using Graph Pad Prism software.

[2] = test system: α-glucosidase; parameters: method as in PMID 32876951; conditions: cited from earlier work
[3] = molecular target: Human VEGFR-2 (KDR) (Homo sapiens, UniProt P35968); assay: Human VEGFR-2 (KDR) kinase assay kit (Kinase-Glo MAX)
Experimental: The VEGFR-2 enzyme (1 ng/μL) was added to the wells and the mixtures were incubated at 30 °C. After 45 min of incubation, kinase detection reagent (50 μL, Kinase-Glo MAX, Promega) was added to each well. The mixtures were incubated for 15 min at room temperature in the dark. A luminescence reading was detected and quantified by a microplate reader (Varioskan Flash, ThermoFisher Scientific, Vantaa, Finland). The IC50 values were determined by the nonlinear regression analysis using GraphPad Prism software version 8.0 (GraphPad Software, Inc., San Diego, CA, USA).

[4] = test system: Vero cell line; assay: CellTiter-Blue cell viability assay, Vero; conditions: Chlorocebus sabaeus, 24 h, read-out: IC50 (µM ± SD) Vero
Experimental: (§1) The cytotoxic activity of these compounds was evaluated in vitro (triplicate run) on the MCF-7, A549 and Vero cell lines using the CellTiter-Blue Cell viability assay (Promega, Madison, WI, USA) assay referring to the reported instructions as described in our previous study [70]. The cells were maintained in culture flasks in the presence of Dulbecco’s Modified Eagle’s Medium (DMEM; Gibco, Carlsbad, CA, USA) supplemented with 10% fetal bovine serum (FBS) and 1% penicillin/streptomycin and then incubated at 37 °C in 5% CO2. The cells were detached using 2% trypsin upon reaching 85% confluency and counted with a hand-held automated cell counter (Scapter 3.0™, Merck, Burlington, MA, USA). The cells were then seeded at 1 × 10^5 cells/well and the well-plates were incubated overnight to allow cell attachment. […] The mixtures were incubated for another 24 h and then 20 µL of the CellTiter-Blue solution was added to each well. Fluorescence was measured using an Elisa microplate reader (ThermoFisher Scientific, Vario SkanFlash, Vantaa, Finland) at 560 nm excitation/590 nm emission.

[5] = test system: MCF-7 cell line; assay: CellTiter-Blue cell viability assay, MCF-7; conditions: Homo sapiens, MCF7, 24 h, read-out: IC50 (µM ± SD) MCF-7
Experimental: as §1

[6] = test system: A549 cell line; assay: CellTiter-Blue cell viability assay, A549; conditions: Homo sapiens, A549, 24 h, read-out: IC50 (µM ± SD) A549
Experimental: as §1

[7] = molecular target: T1, PTP1B (Homo sapiens, UniProt P18031); assay: In vitro PTP1B inhibitory assay (Fluorogenic PTP1B (Catalytic Domain) Assay)
T1 sequence (P18031 3-277 limits assumed): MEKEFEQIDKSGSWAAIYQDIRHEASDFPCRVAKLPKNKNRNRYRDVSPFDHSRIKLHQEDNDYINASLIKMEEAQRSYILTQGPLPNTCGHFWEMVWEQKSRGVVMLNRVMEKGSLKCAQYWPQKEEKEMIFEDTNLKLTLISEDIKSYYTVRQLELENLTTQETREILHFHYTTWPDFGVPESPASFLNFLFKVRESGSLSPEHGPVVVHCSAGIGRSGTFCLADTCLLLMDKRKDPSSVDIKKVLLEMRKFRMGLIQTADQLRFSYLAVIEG
Experimental: The PTP1B assay was performed in duplicate using a 96-well plate. The procedure was carried out according to the manufacturer’s protocol as outlined in the Fluorogenic PTP1B (Catalytic Domain) Assay (Catalogue No. #79764; Abcam, Cambridge, UK). The stock solutions (200 μM) of the test compounds and the reference standard, sodium orthovanadate, were prepared in DMSO, and then diluted with PTP1B assay buffer to obtain a concentration of 100 μM. From this dilution appropriate volumes of each compound and the standard were placed in the 96-well plates to obtain the final concentrations of 1, 5, 10, 25 and 50 µM for the assay. The PTP1B enzyme (2 pg/μL) was added to the wells and the mixtures were incubated at room temperature. After 30 min of incubation, the fluorescence intensity was measured at 360 nm excitation and 460 nm emission wavelengths using an Elisa plate reader. The blank value was subtracted from all other values. The IC50 and SD values were calculated using GraphPad prism version 8.0 and Excel (Version 2409), respectively.

[8] = molecular target: T2, α-amylase (Homo sapiens, UniProt P04746); assay: In vitro α-amylase inhibitory assay (α-Amylase Inhibitor Screening Kit)
T2 sequence (P04746 16-511): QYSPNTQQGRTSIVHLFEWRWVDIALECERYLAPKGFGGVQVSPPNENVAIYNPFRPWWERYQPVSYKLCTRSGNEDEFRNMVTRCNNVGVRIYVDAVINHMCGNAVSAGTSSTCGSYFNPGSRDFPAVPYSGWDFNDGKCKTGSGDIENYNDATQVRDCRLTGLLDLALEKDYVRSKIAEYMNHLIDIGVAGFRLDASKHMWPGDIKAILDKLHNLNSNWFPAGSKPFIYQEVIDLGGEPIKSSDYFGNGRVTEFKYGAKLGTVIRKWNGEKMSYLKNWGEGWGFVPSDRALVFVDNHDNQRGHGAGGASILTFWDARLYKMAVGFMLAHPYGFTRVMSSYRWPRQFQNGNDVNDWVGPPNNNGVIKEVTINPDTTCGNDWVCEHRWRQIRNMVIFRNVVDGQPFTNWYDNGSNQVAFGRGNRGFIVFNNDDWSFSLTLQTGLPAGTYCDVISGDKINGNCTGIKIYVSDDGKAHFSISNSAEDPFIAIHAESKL
Experimental: The α-amylase assay was performed in triplicate using a 96-well plate using the α-Amylase Inhibitor Screening Kit (Catalog No. K482; Abcam, Cambridge, UK). […] A solution of α-amylase enzyme (50 μL) prepared by adding 490 μL of assay buffer to 10 μL of α-amylase enzyme was added to each of the wells containing the reaction mixture to initiate the reaction. The plate was incubated for 10 min. at room temperature in the dark. Five different absorbance readings were recorded for each triplicate run at a wavelength of 405 nm using Varioskan flash microplate spectrophotometer (Thermo Scientific, Waltham, MA, USA). The IC50 and SD values were calculated using the Graph Pad Prism software.

Sequence of Human VEGFR-2 (KDR) (P35968 20-1356): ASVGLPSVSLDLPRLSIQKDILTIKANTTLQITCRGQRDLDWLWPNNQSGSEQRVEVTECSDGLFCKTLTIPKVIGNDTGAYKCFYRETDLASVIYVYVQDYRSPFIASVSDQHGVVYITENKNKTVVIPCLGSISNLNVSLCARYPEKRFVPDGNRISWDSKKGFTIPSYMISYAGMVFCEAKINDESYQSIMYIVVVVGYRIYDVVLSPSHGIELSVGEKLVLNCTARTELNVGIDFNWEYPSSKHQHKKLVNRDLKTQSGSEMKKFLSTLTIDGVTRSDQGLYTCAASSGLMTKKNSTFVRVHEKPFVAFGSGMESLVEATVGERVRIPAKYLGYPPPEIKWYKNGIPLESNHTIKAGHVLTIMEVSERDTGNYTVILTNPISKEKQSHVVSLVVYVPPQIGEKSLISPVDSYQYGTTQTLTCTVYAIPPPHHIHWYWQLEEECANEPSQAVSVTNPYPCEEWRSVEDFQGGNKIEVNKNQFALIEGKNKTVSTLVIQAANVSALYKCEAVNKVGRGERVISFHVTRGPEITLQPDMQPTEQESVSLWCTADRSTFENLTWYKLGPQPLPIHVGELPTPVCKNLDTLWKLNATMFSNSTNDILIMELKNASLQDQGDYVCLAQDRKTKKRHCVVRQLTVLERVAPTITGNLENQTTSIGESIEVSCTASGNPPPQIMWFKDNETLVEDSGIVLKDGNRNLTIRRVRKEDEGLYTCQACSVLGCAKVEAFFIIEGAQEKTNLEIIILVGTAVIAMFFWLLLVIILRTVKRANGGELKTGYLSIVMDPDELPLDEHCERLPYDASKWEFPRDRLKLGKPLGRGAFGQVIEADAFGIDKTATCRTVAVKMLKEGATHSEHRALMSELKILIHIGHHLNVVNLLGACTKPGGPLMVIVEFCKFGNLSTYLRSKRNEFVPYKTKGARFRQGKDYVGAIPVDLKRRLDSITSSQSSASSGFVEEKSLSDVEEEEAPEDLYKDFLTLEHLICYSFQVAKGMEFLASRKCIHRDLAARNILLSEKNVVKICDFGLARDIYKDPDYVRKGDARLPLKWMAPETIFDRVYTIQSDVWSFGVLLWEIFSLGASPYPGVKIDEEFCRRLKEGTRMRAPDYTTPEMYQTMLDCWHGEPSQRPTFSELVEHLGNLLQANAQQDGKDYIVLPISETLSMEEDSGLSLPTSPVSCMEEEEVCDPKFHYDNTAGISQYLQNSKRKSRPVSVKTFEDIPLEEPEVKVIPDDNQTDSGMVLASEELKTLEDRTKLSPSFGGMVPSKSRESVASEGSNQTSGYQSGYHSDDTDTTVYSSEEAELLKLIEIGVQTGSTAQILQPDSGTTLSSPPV
Sequence of α-glucosidase from Saccharomyces cerevisiae (P53341 whole entry): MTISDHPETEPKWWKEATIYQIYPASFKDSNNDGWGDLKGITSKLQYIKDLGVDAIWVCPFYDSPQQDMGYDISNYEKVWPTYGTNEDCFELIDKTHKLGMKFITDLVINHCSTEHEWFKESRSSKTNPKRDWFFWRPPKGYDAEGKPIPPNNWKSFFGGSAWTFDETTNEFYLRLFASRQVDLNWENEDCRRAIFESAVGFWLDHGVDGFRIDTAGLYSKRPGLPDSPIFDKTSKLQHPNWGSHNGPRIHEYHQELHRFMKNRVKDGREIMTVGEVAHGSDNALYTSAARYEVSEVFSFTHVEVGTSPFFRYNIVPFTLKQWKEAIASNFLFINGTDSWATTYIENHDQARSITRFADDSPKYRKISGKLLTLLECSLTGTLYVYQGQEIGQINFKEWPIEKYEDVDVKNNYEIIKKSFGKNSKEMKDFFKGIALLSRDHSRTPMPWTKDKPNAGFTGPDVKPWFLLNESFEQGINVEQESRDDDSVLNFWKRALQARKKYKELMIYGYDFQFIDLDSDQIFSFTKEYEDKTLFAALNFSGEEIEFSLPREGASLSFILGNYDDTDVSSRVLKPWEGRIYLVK

Question: With `CC(=O)c1cc(F)cc([N+](=O)[O-])c1O` [Compound 1a] as the compound, how does the IC50 [1] read?
Answer: 16.9 ± 0.064 µM

Question: With `CC(=O)c1cc(Cl)cc([N+](=O)[O-])c1O` [Compound 1b] as the compound, how does the IC50 [1] read?
Answer: 27.2 ± 0.195 µM

Question: Which IC50 [1] does the source give for `CC(=O)c1cc(Br)cc([N+](=O)[O-])c1O` [Compound 1c] here?
Answer: 11.9 ± 0.01 µM

Question: Which results are given for `CC(=O)c1cc(C)cc([N+](=O)[O-])c1O` [Compound 1d]?
Answer: inhibition of α-glucosidase activity (reported) [2]: low nanomolar concentrations; IC50 [1]: 8.2 ± 0.015 µM

Question: For `CC(=O)c1cc(F)cc([N+](=O)[O-])c1OS(=O)(=O)c1ccccc1F` [Compound 2a, 2-Acetyl-4-fluoro-6-nitrophenyl 2-fluorobenzenesulfonate], which IC50 [3] is on record?
Answer: 28.7 ± 0.27 µM

Question: And the IC50 [4]?
Answer: 39.21 ± 0.13 µM

Question: What about the IC50 [5] of the same compound?
Answer: 4.96 ± 0.05 µM

Question: And the IC50 [1]?
Answer: 5.6 ± 0.038 µM

Question: And the IC50 [6]?
Answer: 7.75 ± 0.11 µM

Question: With `CC(=O)c1cc(F)cc([N+](=O)[O-])c1OS(=O)(=O)c1cccc(F)c1` [Compound 2b, 2-Acetyl-4-fluoro-6-nitrophenyl 3-fluorobenzenesulfonate] as the compound, how does the IC50 [1] read?
Answer: 8.6 ± 0.025 µM

Question: Which IC50 [1] does the source give for `CC(=O)c1cc(F)cc([N+](=O)[O-])c1OS(=O)(=O)c1ccc(F)cc1` [Compound 2c, 2-Acetyl-4-fluoro-6-nitrophenyl 4-fluorobenzenesulfonate] here?
Answer: 27.4 ± 0.044 µM

Question: With `CC(=O)c1cc(F)cc([N+](=O)[O-])c1OS(=O)(=O)c1ccc(C(F)(F)F)cc1` [Compound 2d, 2-Acetyl-4-fluoro-6-nitrophenyl 4-(trifluoromethyl)benzenesulfonate] as the compound, how does the IC50 [1] read?
Answer: 6.4 ± 0.012 µM

Question: With `CC(=O)c1cc(F)cc([N+](=O)[O-])c1OS(=O)(=O)c1ccc(OC(F)(F)F)cc1` [Compound 2e, 2-Acetyl-4-fluoro-6-nitrophenyl 4-(trifluoromethoxy)benzenesulfonate] as the compound, how does the IC50 [3] read?
Answer: 28.5 ± 0.23 µM

Question: And the IC50 [7]?
Answer: 23.1 ± 0.006 µM

Question: And the IC50 [4]?
Answer: 20.78 ± 0.14 µM

Question: What about the IC50 [5] of the same compound?
Answer: 8.18 ± 0.03 µM

Question: And the IC50 [8]?
Answer: 15.2 ± 0.019 µM

Question: What about the IC50 [1] of the same compound?
Answer: 3.1 ± 0.043 µM

Question: What about the IC50 [6] of the same compound?
Answer: 7.42 ± 0.09 µM

Question: Which IC50 [3] does the source give for `CC(=O)c1cc(Cl)cc([N+](=O)[O-])c1OS(=O)(=O)c1ccccc1F` [Compound 2g, 2-Acetyl-4-chloro-6-nitrophenyl 2-fluorobenzenesulfonate] here?
Answer: 34.4 ± 0.26 µM

Question: What about the IC50 [7] of the same compound?
Answer: 16.9 ± 0.016 µM

Question: What about the IC50 [4] of the same compound?
Answer: 33.93 ± 0.15 µM

Question: What about the IC50 [5] of the same compound?
Answer: 9.92 ± 0.09 µM

Question: What about the IC50 [8] of the same compound?
Answer: 7 ± 0.04 µM

Question: And the IC50 [1]?
Answer: 4.2 ± 0.054 µM

Question: What about the IC50 [6] of the same compound?
Answer: 6.15 ± 0.06 µM

Question: For `CC(=O)c1cc(Cl)cc([N+](=O)[O-])c1OS(=O)(=O)c1cccc(F)c1` [Compound 2h, 2-Acetyl-4-chloro-6-nitrophenyl 3-fluorobenzenesulfonate], which IC50 [1] is on record?
Answer: 12.4 ± 0.041 µM

Question: Which IC50 [1] does the source give for `CC(=O)c1cc(Cl)cc([N+](=O)[O-])c1OS(=O)(=O)c1ccc(F)cc1` [Compound 2i, 2-Acetyl-4-chloro-6-nitrophenyl 4-fluorobenzenesulfonate] here?
Answer: 10.6 ± 0.039 µM

Question: Which results are given for `CC(=O)c1cc(Cl)cc([N+](=O)[O-])c1OS(=O)(=O)c1ccc(C(F)(F)F)cc1` [Compound 2j, 2-Acetyl-4-chloro-6-nitrophenyl 4-(trifluoromethyl)benzenesulfonate]?
Answer: IC50 [3]: 20.8 ± 0.35 µM; IC50 [7]: 19.6 ± 0.042 µM; IC50 [4]: 38.86 ± 0.16 µM; IC50 [5]: 2.58 ± 0.02 µM; IC50 [8]: 7.3 ± 0.008 µM; IC50 [1]: 5.4 ± 0.03 µM; IC50 [6]: 2.52 ± 0.02 µM

Question: With `CC(=O)c1cc(Cl)cc([N+](=O)[O-])c1OS(=O)(=O)c1ccc(OC(F)(F)F)cc1` [Compound 2k, 2-Acetyl-4-chloro-6-nitrophenyl 4-(trifluoromethoxy)benzenesulfonate] as the compound, how does the IC50 [3] read?
Answer: 26.4 ± 0.2 µM

Question: What about the IC50 [7] of the same compound?
Answer: 20.1 ± 0.065 µM

Question: And the IC50 [4]?
Answer: 33.39 ± 0.13 µM

Question: And the IC50 [5]?
Answer: 34.53 ± 0.12 µM

Question: And the IC50 [8]?
Answer: 9.8 ± 0.021 µM

Question: And the IC50 [1]?
Answer: 3.9 ± 0.031 µM

Question: And the IC50 [6]?
Answer: 1.89 ± 0.05 µM

Question: Which IC50 [1] does the source give for `COc1ccc(S(=O)(=O)Oc2c(C(C)=O)cc(Cl)cc2[N+](=O)[O-])cc1` [Compound 2l, 2-Acetyl-4-chloro-6-nitrophenyl 4-methoxybenzenesulfonate] here?
Answer: 8.5 ± 0.043 µM

Question: With `CC(=O)c1cc(Br)cc([N+](=O)[O-])c1OS(=O)(=O)c1ccccc1F` [Compound 2m, 2-Acetyl-4-bromo-6-nitrophenyl 2-fluorobenzenesulfonate] as the compound, how does the IC50 [1] read?
Answer: 7.9 ± 0.044 µM

Question: For `CC(=O)c1cc(Br)cc([N+](=O)[O-])c1OS(=O)(=O)c1cccc(F)c1` [Compound 2n, 2-Acetyl-4-bromo-6-nitrophenyl 3-fluorobenzenesulfonate], which IC50 [1] is on record?
Answer: 18.2 ± 0.041 µM

Question: With `CC(=O)c1cc(Br)cc([N+](=O)[O-])c1OS(=O)(=O)c1ccc(F)cc1` [Compound 2o, 2-Acetyl-4-bromo-6-nitrophenyl 4-fluorobenzenesulfonate] as the compound, how does the IC50 [1] read?
Answer: 20.5 ± 0.058 µM

Question: For `CC(=O)c1cc(Br)cc([N+](=O)[O-])c1OS(=O)(=O)c1ccc(C(F)(F)F)cc1` [Compound 2p, 2-Acetyl-4-bromo-6-nitrophenyl 4-(trifluoromethyl)benzenesulfonate], which IC50 [1] is on record?
Answer: 8 ± 0.06 µM

Question: With `CC(=O)c1cc(Br)cc([N+](=O)[O-])c1OS(=O)(=O)c1ccc(OC(F)(F)F)cc1` [Compound 2q, 2-Acetyl-4-bromo-6-nitrophenyl 4-(trifluoromethoxy)benzenesulfonate] as the compound, how does the IC50 [1] read?
Answer: 8.7 ± 0.075 µM

Question: For `COc1ccc(S(=O)(=O)Oc2c(C(C)=O)cc(Br)cc2[N+](=O)[O-])cc1` [Compound 2r, 2-Acetyl-4-bromo-6-nitrophenyl 4-methoxybenzenesulfonate], which IC50 [1] is on record?
Answer: 13.2 ± 0.043 µM

Question: With `CC(=O)c1cc(C)cc([N+](=O)[O-])c1OS(=O)(=O)c1ccccc1F` [Compound 2s, 2-Acetyl-4-methyl-6-nitrophenyl 2-fluorobenzenesulfonate] as the compound, how does the IC50 [1] read?
Answer: 18.1 ± 0.048 µM

Question: Which IC50 [1] does the source give for `CC(=O)c1cc(C)cc([N+](=O)[O-])c1OS(=O)(=O)c1cccc(F)c1` [Compound 2t, 2-Acetyl-4-methyl-6-nitrophenyl 3-fluorobenzenesulfonate] here?
Answer: 13.1 ± 0.045 µM

Question: Which IC50 [1] does the source give for `CC(=O)c1cc(C)cc([N+](=O)[O-])c1OS(=O)(=O)c1ccc(F)cc1` [Compound 2u, 2-Acetyl-4-methyl-6-nitrophenyl 4-fluorobenzenesulfonate] here?
Answer: 11.2 ± 0.045 µM

Question: With `CC(=O)c1cc(C)cc([N+](=O)[O-])c1OS(=O)(=O)c1ccc(C(F)(F)F)cc1` [Compound 2v, 2-Acetyl-4-methyl-6-nitrophenyl 4-(trifluoromethyl)benzenesulfonate] as the compound, how does the IC50 [3] read?
Answer: 16.3 ± 0.29 µM

Question: And the IC50 [7]?
Answer: 7.6 ± 0.07 µM

Question: What about the IC50 [4] of the same compound?
Answer: 48.02 ± 0.18 µM

Question: What about the IC50 [5] of the same compound?
Answer: 8.58 ± 0.07 µM

Question: And the IC50 [8]?
Answer: 6 ± 0.02 µM

Question: And the IC50 [1]?
Answer: 3 ± 0.014 µM

Question: What about the IC50 [6] of the same compound?
Answer: 5.5 ± 0.01 µM

Question: Which IC50 [8] does the source give for `CC(=O)c1cc(C)cc([N+](=O)[O-])c1OS(=O)(=O)c1ccc(OC(F)(F)F)cc1` [Compound 2w, 2-Acetyl-4-methyl-6-nitrophenyl 4-(trifluoromethoxy)benzenesulfonate] here?
Answer: 16.7 ± 0.035 µM

Question: What about the IC50 [1] of the same compound?
Answer: 6 ± 0.034 µM

Question: With `COc1ccc(S(=O)(=O)Oc2c(C(C)=O)cc(C)cc2[N+](=O)[O-])cc1` [Compound 2x, 2-Acetyl-4-methyl-6-nitrophenyl 4-methoxybenzenesulfonate] as the compound, how does the IC50 [3] read?
Answer: 24.2 ± 0.22 µM

Question: And the IC50 [7]?
Answer: 21.5 ± 0.066 µM

Question: And the IC50 [4]?
Answer: 56.77 ± 0.18 µM

Question: And the IC50 [5]?
Answer: 11.01 ± 0.07 µM

Question: What about the IC50 [8] of the same compound?
Answer: 11.9 ± 0.022 µM

Question: What about the IC50 [1] of the same compound?
Answer: 3.6 ± 0.029 µM

Question: And the IC50 [6]?
Answer: 1.01 ± 0.01 µM

Question: For `COc1cccc2c1C(=O)c1c(O)c3c(c(O)c1C2=O)C[C@@](O)(C(=O)CO)C[C@@H]3O[C@H]1C[C@H](N)[C@H](O)[C@H](C)O1` [Doxorubicin, reference compound], which IC50 [4] is on record?
Answer: 0.94 ± 0.04 µM

Question: And the IC50 [5]?
Answer: 0.59 ± 0.03 µM

Question: And the IC50 [6]?
Answer: 0.71 ± 0.09 µM

Question: Which results are given for `COC(=O)c1ccc2c(c1)NC(=O)/C2=C(\Nc1ccc(N(C)C(=O)CN2CCN(C)CC2)cc1)c1ccccc1` [Nintedanib, reference compound]?
Answer: IC50 [4]: 0.24 ± 0.02 µM; IC50 [5]: 0.4 ± 0.03 µM; IC50 [6]: 0.78 ± 0.04 µM
